According to patent US7375180B2, “Methods and compositions related to IRM compounds and Toll-like receptor 8” (3M Innovative Properties Company, priority 2003, dated 2008):

Molecular target: T1, TLR8 (Homo sapiens, UniProt Q9NR97)
T1 sequence (Q9NR97 27-1041): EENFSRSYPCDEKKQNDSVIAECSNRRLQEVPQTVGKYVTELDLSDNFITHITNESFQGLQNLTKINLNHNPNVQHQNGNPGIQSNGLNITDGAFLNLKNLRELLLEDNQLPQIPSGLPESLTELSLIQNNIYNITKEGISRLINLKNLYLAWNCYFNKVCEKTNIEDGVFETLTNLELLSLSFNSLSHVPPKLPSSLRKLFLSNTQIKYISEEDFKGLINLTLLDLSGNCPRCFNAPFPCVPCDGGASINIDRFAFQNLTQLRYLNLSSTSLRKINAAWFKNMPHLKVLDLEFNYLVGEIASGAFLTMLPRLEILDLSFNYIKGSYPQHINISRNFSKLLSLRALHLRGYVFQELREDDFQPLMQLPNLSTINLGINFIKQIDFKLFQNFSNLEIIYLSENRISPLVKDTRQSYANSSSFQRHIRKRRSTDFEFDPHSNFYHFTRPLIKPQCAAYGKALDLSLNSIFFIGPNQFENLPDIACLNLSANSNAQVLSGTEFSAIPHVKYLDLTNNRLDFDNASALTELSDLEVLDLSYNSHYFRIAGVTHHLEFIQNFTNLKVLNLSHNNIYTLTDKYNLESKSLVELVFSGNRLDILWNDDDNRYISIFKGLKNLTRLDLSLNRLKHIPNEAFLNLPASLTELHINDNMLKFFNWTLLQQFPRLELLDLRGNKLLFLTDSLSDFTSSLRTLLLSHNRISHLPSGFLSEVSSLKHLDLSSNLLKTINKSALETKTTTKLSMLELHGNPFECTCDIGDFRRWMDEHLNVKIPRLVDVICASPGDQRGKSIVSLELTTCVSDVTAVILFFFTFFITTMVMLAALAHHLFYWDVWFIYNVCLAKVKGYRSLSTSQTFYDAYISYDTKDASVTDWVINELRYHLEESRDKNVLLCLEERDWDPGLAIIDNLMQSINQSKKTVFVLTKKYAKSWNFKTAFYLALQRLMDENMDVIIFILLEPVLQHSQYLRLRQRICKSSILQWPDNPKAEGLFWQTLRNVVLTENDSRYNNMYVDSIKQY
Test: Dose dependent TLR8-mediated NF-κB-luciferase response in HEK293 cells transfected with TLR8 (Example 5)
Format: cell-based
Parameters: expressed in transfected cells; host or cells: HEK293 (ATCC CRL-1573), pIRES vector, G-418 selected, co-transfected with NFkB-luc reporter
Protocol: Twenty-four hours before transfection, HEK293 cells were adhered to a 10 cm dish (Corning 430167, Corning Inc., Corning, N.Y.) at 37° C., 8% CO2. The cells were co-transfected with (1) pIRES (BD Biosciences Clontech, Palo Alto, Calif.) either (a) unmodified (HEK293-vector) or (b) containing human TLR8 (HEK293-TLR8), and (2) NFkB-luc reporter (Stratagene, La Jolla, Calif.) in a 10:1 ratio with Fugene 6 transfection reagent (Roche Diagnostics Corp., Indianapolis, Ind.) following the manufacturer's instructions. The plates were incubated for 24 hours following transfection and then selected in G-418 (400 μg/mL) for two weeks. The G-418-resistant cells containing either the TLR8 or empty vector were expanded in HEK293 media supplemented with G-418 for stimulation experiments.
The transfected cells were plated in white opaque 96 well plates (Costar 3917, Corning Inc., Corning, N.Y.) at a concentration of 5×10^4 cells per well in 100 μL of HEK293 media and incubated at 37° C., 8% CO2 for 4 hours. The cells were stimulated with 1 μL of IRM compounds at 1 mM in DMSO (final IRM concentration of 10 μM) or 1 μL DMSO as a control. The plates were then incubated an additional 16 hours at 37° C., 5% CO2. Luminescence was measured on an LMAX luminometer (Molecular Devices Corp., Sunnyvale, Calif.).
HEK293 cells were transfected as described in Example 1. HEK293 cultures were incubated with IRM compound or a negative control compound (1,5-dihydro-1-(2-methylpropyl)-4H-imidazo[4,5-c]quinolin-4-one, U.S. Pat. No. 4,698,348, Example 71) at concentrations of 0.1 μM, 0.3 μM, 1.0 μM, 3.0 μM, 10 μM, or 30 μM, or a vehicle control. Cultures were otherwise incubated as described in Example 1. Luciferase signals were read in RLU (Relative Luciferase Units) as described in Example 1.

Row | Compound | Fold increase over vehicle (0.1 μM) [fold] | Fold increase over vehicle (0.3 μM) [fold] | Fold increase over vehicle (1.0 μM) [fold] | Fold increase over vehicle (3.0 μM) [fold] | Fold increase over vehicle (10 μM) [fold] | Fold increase over vehicle (30 μM) [fold]
1 | CCCCc1nc2c(N)nc3ccccc3c2n1CC(C)(C)CNC(=O)N1CCOCC1 [IRM46, N-[3-(4-amino-2-butyl-1H-imidazo[4,5-c]quinolin-1-yl)-2,2-dimethylpropyl]morpholine-4-carboxamide] | 0.9 | 1.1 | 1.4 | 1.7 | 3.9 | 7.3
2 | CCOCc1nc2c(N)nc3ccccc3c2n1CC(C)(C)NC(=O)NC(C)C [IRM47, N-{2-[4-amino-2-(ethoxymethyl)-1H-imidazo[4,5-c]quinolin-1-yl]-1,1-dimethylethyl}-n′-isopropylurea] | 0.9 | 0.8 | 1.1 | 1.7 | 4.9 | 12.5
3 | CCOCc1nc2c(N)nc3cc(-c4ccccc4)ccc3c2n1CC1CCNCC1 [IRM48, 2-ethoxymethyl-7-phenyl-1-(piperidin-4-ylmethyl)-1H-imidazo[4,5-c]quinolin-4-amine] | 0.9 | 0.6 | 1.1 | 1.2 | 8.2 | 9.5
4 | COCCc1nc2c(N)nc3cc(-c4cncc(CO)c4)ccc3c2n1CC(C)(C)O [IRM49, 1-[4-amino-7-(5-hydroxymethylpyridin-3-yl)-2-(2-methoxyethyl)-1H-imidazo[4,5-c]quinolin-1-yl]-2-methylpropan-2-ol] | 1.1 | 1.4 | 2.0 | 3.8 | 7.0 | 15.5
5 | COCCc1nc2c(N)nc3cc(-c4cccc(NS(C)(=O)=O)c4)ccc3c2n1CC(C)(C)O [IRM50, N-{3-[4-amino-1-(2-hydroxy-2-methylpropyl)-2-(methoxyethyl)-1H-imidazo[4,5-c]quinolin-7-yl]phenyl}methanesulfonamide] | 1.8 | 2.1 | 2.2 | 4.1 | 11.7 | 21.1
6 | CCOCc1nc2c(N)nc3cc(-c4cccnc4)ccc3c2n1CC(C)(C)O [IRM51, 1-[4-amino-2-(ethoxymethyl)-7-(pyridin-3-yl)-1H-imidazo[4,5-c]quinolin-1-yl]-2-methylpropan-2-ol] | 1.9 | 3.8 | 11.9 | 15.0 | 21.5 | 22.4
7 | CCOCc1nc2c(N)nc3cc(-c4cncc(CO)c4)ccc3c2n1CC(C)(C)O [IRM52, 1-{4-amino-2-(ethoxymethyl)-7-[5-(hydroxymethyl)pyridin-3-yl]-1H-imidazo[4,5-c]quinolin-1-yl}-2-methylpropan-2-ol] | 1.2 | 2.1 | 4.1 | 5.8 | 7.8 | 9.3
8 | CCOCc1nc2c(N)nc3cc(-c4ccc(CO)cc4)ccc3c2n1CC1COC(C)(C)O1 (stereo not drawn) [IRM53, 1-[(2,2-dimethyl-1,3-dioxolan-4-yl)methyl]-2-(ethoxymethyl)-7-(4-hydroxymethylphenyl)-1H-imidazo[4,5-c]quinolin-4-amine] | 0.9 | 1.0 | 1.4 | 2.0 | 3.6 | 7.7
9 | CCOCc1nc2c(N)nc3ccccc3c2n1CC(C)(C)NC(=O)NC1CCCC1 [IRM54, 1-[2-(4-amino-2-ethoxymethyl-1H-imidazo[4,5-c]quinolin-1-yl)-1,1-dimethylethyl]-3-cyclopentylurea] | 0.9 | 0.9 | 1.2 | 2.6 | 5.9 | 9.2
10 | CCCNC(=O)NC(C)(C)Cn1c(COCC)nc2c(N)nc3ccccc3c21 [IRM55, 1-[2-(4-amino-2-ethoxymethyl-1H-imidazo[4,5-c]quinolin-1-yl)-1,1-dimethylethyl]-3-propylurea] | 0.7 | 1.1 | 1.0 | 2.9 | 7.2 | 9.9
11 | CCOCc1nc2c(N)nc3cc(-c4ccncc4)ccc3c2n1CC(C)(C)O [IRM56, 1-[4-amino-2-ethoxymethyl-7-(pyridin-4-yl)-1H-imidazo[4,5-c]quinolin-1-yl]-2-methylpropan-2-ol] | 1.2 | 1.8 | 5.9 | 10.0 | 24.4 | 27.9
12 | CCOCc1nc2c(N)nc3cc(-c4cccnc4)ccc3c2n1CC(O)CO (stereo not drawn) [IRM57, 3-[4-amino-2-(ethoxymethyl)-7-(pyridin-3-yl)-1H-imidazo[4,5-c]quinolin-1-yl]propane-1,2-diol] | 1.4 | 1.7 | 3.1 | 7.2 | 10.4 | 12.5
13 | CCOCc1nc2c(N)nc3cc(-c4cccc(C(=O)N5CCCC5)c4)ccc3c2n1CC(C)(C)O [IRM58, {3-[4-amino-2-ethoxymethyl-1-(2-hydroxy-2-methylpropyl)-1H-imidazo[4,5-c]quinolin-7-yl]phenyl}pyrrolidin-1-ylmethanone] | 0.7 | 0.8 | 0.9 | 3.2 | 6.9 | 7.8
14 | CCc1nc2c(N)nc3cc(-c4ccncc4)ccc3c2n1CC(C)(C)O [IRM59, 1-[4-amino-2-ethyl-7-(pyridin-4-yl)-1H-imidazo[4,5-c]quinolin-1-yl]-2-methylpropan-2-ol] | 1.0 | 1.3 | 2.1 | 5.5 | 9.5 | 9.8
